Measured values reported in patent US20240239811A1, “5-(5-(PIPERIDIN-4-YL)THIENO[3,2-C]PYRAZOL-2-YL]INDAZOLE DERIVATIVES AND RELATED COMPOUNDS AS MODULATORS FOR SPLICING NUCLEIC ACIDS AND FOR THE T” (REMIX THERAPEUTICS INC., priority 2020, published 2024).

How the values were obtained:
Format in all cases: cell-based
[1] = tested on: Target C CJ mRNA; assay: Gene panel canonical junction qPCR assay, Target C; conditions: Table 6, decrease in CJ mRNA, read-out: Target C IC50 (decrease in CJ mRNA levels)
In short: (§1)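 A673 or K562 cells treated 24 h at 37° C with 11-point 3-fold dilutions, top 10 uM, DMSO ≤0.25%. CJ mRNA quantified by RT-qPCR with exon-junction-spanning probeset, ΔΔCt vs housekeeping gene (GAPDH, GUSB or PPIA) and DMSO control. IC50 from 4-parameter fit of percentage CJ decrease.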

[2] = tested on: HTT mRNA; assay: Splicing assay (RT-qPCR) monitoring HTT splice variants, canonical (CJ) and alternative (AJ) junction; conditions: 50% response, A673 or K562 cell line, 24 hours; for IC50: decrease in CJ mRNA; for AC50: increase in AJ mRNA
In short: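 A673 or K562 cells were treated 24 h with an 11-point 3-fold dilution series (top 10 uM, ≤0.25% DMSO) at 37 °C. HTT canonical- and alternative-junction mRNAs were quantified in lysates by one-step RT-qPCR. Values were normalized to PPIA (A673) or GAPDH/GUSB (K562).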

[3] = tested on: HTT CJ mRNA; assay: Gene panel canonical junction qPCR assay, HTT; conditions: Table 6, decrease in CJ mRNA, read-out: HTT IC50 (decrease in CJ mRNA levels)
In short: as §1

[4] = tested on: SMN2 CJ mRNA; assay: Gene panel canonical junction qPCR assay, SMN2; conditions: Table 6, decrease in CJ mRNA, read-out: SMN2 IC50 (decrease in CJ mRNA levels)
In short: as §1

SMILES	IC50 [1] [µM]	IC50 [2] [µM]	IC50 [3] [µM]	IC50 [4] [µM]	AC50 [2] [µM]
Cc1cn2cc(-n3cc4sc(C5CCNCC5)cc4n3)cc(F)c2n1 [Compound 166, 4-(2-{8-fluoro-2-methylimidazo[1,2-a]pyridin-6-yl}thieno[3,2-c]pyrazol-5-yl)piperidine]	1 to 10	0.1 to 1	0.1 to 1	0.1 to 1	0.1 to 1
Cc1cn2nc(-n3cc4sc(C5CCNCC5)cc4n3)cc2c(C)n1 [Compound 171]	1 to 10	0.1 to 1	0.1 to 1	0.1 to 1	0.1 to 1
Cn1cc2c(F)cc(-n3cc4cc(C5CCNCC5)sc4n3)cc2n1 [Compound 174]	> 10	> 10	> 10	1 to 10	> 10
Cn1cc2cc(-c3cc4cn(C5=CCOCC5)nc4s3)cc(F)c2n1 [Compound 177]	> 10	> 10	> 10	> 10	> 10
Cn1cc2cc(-n3cc4sc(C5CCNCC5)cc4n3)c(O)cc2n1 [Compound 178]	1 to 10	1 to 10	1 to 10	1 to 10	1 to 10
c1n[nH]cc1-n1cc2cc(C3CCNCC3)sc2n1 [Compound 180]	> 10	> 10	> 10	> 10	> 10
Cn1cc2cc(-c3cc4cn(C5CNC5)nc4s3)cc(F)c2n1 [Compound 184]	> 10	1 to 10	1 to 10	0.1 to 1	1 to 10
Cc1cn2nc(-n3cc4sc(N5CCC(NC(C)(C)C)C5)cc4n3)cc(C)c2n1 (stereo not shown) [Compound 189, N-tert-butyl-1-(2-{2,8-dimethylimidazo[1,2-b]pyridazin-6-yl}thieno[3,2-c]pyrazol-5-yl) pyrrolidin-3-amine]	> 10	> 10	> 10	1 to 10	> 10
CN(c1cc2sc(-c3ccc(-c4cn[nH]c4)cc3O)nc2s1)[C@@H]1C[C@H]2CC[C@@H](C1)N2 [Compound 191, 2-{5-[(1R,3R,5S)-8-azabicyclo[3.2.1]octan-3-yl(methyl)amino]thieno[2,3-d][1,3]-thiazol-2-yl}-5-(1H-pyrazol-4-yl)phenol]	> 10	> 10	> 10	> 10	> 10
C[C@@H]1C[C@H](c2cc3sc(-c4cc(F)c5nn(C)cc5c4)nc3s2)CCN1 [Compound 192, 7-fluoro-2-methyl-5-[5-(2-methylpiperidin-4-yl)thieno[2,3-d][1,3]thiazol-2-yl]indazole]	< 0.1	< 0.1	< 0.1	< 0.1	< 0.1
C[C@@H]1C[C@@H](c2cc3sc(-c4cc(F)c5nn(C)cc5c4)nc3s2)CCN1 [Compound 193, 7-fluoro-2-methyl-5-[5-(2-methylpiperidin-4-yl)thieno[2,3-d][1,3]thiazol-2-yl]indazole]	< 0.1	< 0.1	< 0.1	< 0.1	< 0.1
Cc1cn2nc(-c3nc4sc(C5=CCNCC5)cc4s3)cc(C)c2n1 [Compound 198, 4-(2-{2,8-dimethylimidazo[1,2-b]pyridazin-6-yl}thieno[2,3-d][1,3]thiazol-5-yl)-1,2,3,6-tetrahydropyridine]	1 to 10	< 0.1	< 0.1	< 0.1	0.1 to 1
Cn1cc2cc(-c3nc4sc(N5CCC56CCNC6)cc4s3)cc(F)c2n1 (stereo not shown) [Compound 200, 5-(5-{1,6-diazaspiro[3.4]octan-1-yl}thieno[2,3-d][1,3]thiazol-2-yl)-7-fluoro-2-methy-lindazole]	> 10	> 10	> 10	1 to 10	> 10
Cc1cn2cc(-c3nc4sc(C5CCNCC5)cc4s3)ncc2n1 [Compound 205, 4-(2-{2-methylimidazo[1,2-a]pyrazin-6-yl}thieno[2,3-d][1,3]thiazol-5-yl)piperidine]	1 to 10	1 to 10	1 to 10	1 to 10	1 to 10

Continued, in another order:

IC50 [1] [µM]	IC50 [2] [µM]	IC50 [3] [µM]	IC50 [4] [µM]	SMILES	AC50 [2] [µM]
0.1 to 1	< 0.1	< 0.1	< 0.1	Cc1cn2cc(-n3cc4cc(C5CCNCC5)sc4n3)cc(Cl)c2n1 [Compound 165]	< 0.1
1 to 10	0.1 to 1	0.1 to 1	0.1 to 1	Cc1nc2c(F)cc(-n3cc4sc(C5CCNCC5)cc4n3)cc2o1 [Compound 167]	0.1 to 1
> 10	1 to 10	1 to 10	0.1 to 1	Cc1nc2c(F)cc(-n3cc4sc(C5CCNCC5)cc4n3)cc2s1 [Compound 168]	1 to 10
1 to 10	1 to 10	1 to 10	1 to 10	Cc1cn2cc(-n3cc4sc(C5CCNCC5)cc4n3)ncc2n1 [Compound 169]	1 to 10
1 to 10	1 to 10	1 to 10	1 to 10	Cc1cn2nc(-n3cc4sc(C5CCNCC5)cc4n3)nc2c(C)n1 [Compound 170]	1 to 10
1 to 10	0.1 to 1	0.1 to 1	0.1 to 1	Cc1cn2cc(-n3cc4sc(C5CCNCC5)cc4n3)cc(Cl)c2n1 [Compound 172]	0.1 to 1
> 10	1 to 10	1 to 10	1 to 10	Cc1cn2cc(-n3cc4sc(C5CCNCC5)cc4n3)cc(C)c2n1 [Compound 173]	1 to 10
> 10	> 10	> 10	> 10	c1n[nH]cc1-n1cc2sc(C3CCNCC3)cc2n1 [Compound 176]	> 10
> 10	1 to 10	1 to 10	1 to 10	Cc1cn2cc(-n3cc4sc(C5CCNCC5)cc4n3)nc2c(C)n1 [Compound 181]	1 to 10
0.1 to 1	< 0.1	< 0.1	< 0.1	Cn1cc2cc(-c3cc4cn([C@@H]5CCNC[C@H]5F)nc4s3)cc(F)c2n1 [Compound 187]	< 0.1
1 to 10	0.1 to 1	0.1 to 1	0.1 to 1	Cc1cn2nc(-n3cc4sc(N5CC6(CN(C)C6)C5)cc4n3)cc(C)c2n1 [Compound 188, 2-(2-{2,8-dimethylimidazo[1,2-b]pyridazin-6-yl}thieno [3,2-c]pyrazol-5-yl)-6-methyl-2,6-diazaspiro [3.3] heptane]	1 to 10
0.1 to 1	0.1 to 1	0.1 to 1	0.1 to 1	Cc1cn2nc(-c3nc4sc(C5=CCOCC5)cc4s3)cc(C)c2n1 [Compound 195, 6-[5-(3,6-dihydro-2H-pyran-4-yl)thieno[2,3-d][1,3]thiazol-2-yl]-2,8-dimethylimidazo[1,2-b]pyridazine]	0.1 to 1
1 to 10	1 to 10	1 to 10	1 to 10	Cc1cn2nc(-c3nc4sc(C5CCOCC5)cc4s3)cc(C)c2n1 [Compound 196, 2,8-dimethyl-6-[5-(oxan-4-yl)thieno[2,3-d][1,3]thiazol-2-yl]imidazo[1,2-b]pyridazine]	1 to 10
1 to 10	0.1 to 1	0.1 to 1	0.1 to 1	Cc1cn2nc(-c3nc4sc(C5CCNC5)cc4s3)cc(C)c2n1 (stereo not shown) [Compound 197, 3-(2-{2,8-dimethylimidazo[1,2-b]pyridazin-6-yl}thieno [2,3-d][1,3]thiazol-5-yl)pyrrolidine]	0.1 to 1
> 10	> 10	> 10	> 10	Cn1cc2cc(-c3nc4sc(N5CCC56CCNCC6)cc4s3)cc(F)c2n1 [Compound 201, 1-[2-(7-fluoro-2-methylindazol-5-yl)thieno[2,3-d] [1,3]thiazol-5-yl]-1,7-diazaspiro[3.5]nonane]	> 10
1 to 10	> 10	> 10	1 to 10	Cn1cc2cc(-c3nc4sc(N5CCC56CCCNC6)cc4s3)cc(F)c2n1 (stereo not shown) [Compound 202, 1-[2-(7-fluoro-2-methylindazol-5-yl)thieno[2,3-d][1,3]thiazol-5-yl]-1,6-diazaspiro[3.5]nonane]	> 10
> 10	> 10	> 10	1 to 10	CN1CCCC2(CCN2c2cc3sc(-c4cc(F)c5nn(C)cc5c4)nc3s2)C1 (stereo not shown) [Compound 203, 1-[2-(7-fluoro-2-methylindazol-5-yl)thieno[2,3-d][1,3]thiazol-5-yl]-6-methyl-1,6-diazaspiro[3.5]nonane]	> 10
1 to 10	1 to 10	1 to 10	1 to 10	CN1CCC2(CC1)CCN2c1cc2sc(-c3cc(F)c4nn(C)cc4c3)nc2s1 [Compound 204, 1-[2-(7-fluoro-2-methylindazol-5-yl)thieno[2,3-d][1,3]thiazol-5-yl]-7-methyl-1,7-diazaspiro [3.5]nonane]	1 to 10
